Assay results as given in patent publication EP1202746B1, “NSAID AND EGFR KINASE INHIBITOR CONTAINING COMPOSITION FOR THE TREATMENT OR INHIBITION OF COLONIC POLYPS AND COLORECTAL CANCER” (Wyeth Holdings Corporation, priority 1999, dated 2001).

Test system: intestinal polyps (adenomas)
Assay: Min mouse intestinal polyp test procedure emulating familial adenomatous polyps (FAP); polyps counted on day 61
Assay type: in vivo, Min mouse (C57BL/6J-Min/+)
Text: The procedure described below emulates familial adenomatous polyps (FAP) in humans using the Min mouse (C57BL/6J-Min/+), which is a strain which has […] of the APC gene. These animals develop multiple intestinal polyps (adenomas) that ultimately progress to form adenocarcinomas. The polyps that develop in Min mice express EGFR and have activated COX-2.
Test animals were divided into four treatment groups: Group I, control; Group II, N-[4-[(3-bromophenyl)amino]-6-quinazolinyl]-2-butynamide; Group III, sulindac; and Group IV, combination of sulindac and N-[4-[(3-bromophenyl)amino]-6-quinazolinyl]-2-butynamide (hereinafter referred to as the NSAID/EGFR kinase inhibitor combination). The test compound was blended with a standard murine chow and animals were given ad libitum access to the food, in quantities corresponding to the following approximate daily dosages: Group II - 40 mg/kg/day N-[4-[(3-bromophenyl)amino]-6-quinazolinyl]-2-butynamide; […]; and Group IV - 40 mg/kg/day N-[4-[(3-bromophenyl)amino]-6-quinazolinyl]-2-butynamide and 20 mg/kg/day sulindac. The animals were treated for 60 days. The food was weighed once per week to determine consumption, and the animals also weighed weekly. On day 61, the animals were euthanized with CO2 inhalation, and the entire intestinal tract from stomach to anus was removed. The intestinal tract was injected with Bouins fixative, and allowed to fix for several days. The intestinal tracts were then opened and the number of polyps counted. Statistical analysis was performed using the Student's t-Test; a p value of ≤ 0.05 is considered statistically significant.
The animals were treated for 60 days. The food was weighed once per week to determine consumption, and the animals also weighed weekly. On day 61, the animals were euthanized with CO2 inhalation, and the entire intestinal tract from stomach to anus was removed. The intestinal tract was injected with Bouins fixative, and allowed to fix for several days. The intestinal tracts were then opened and the number of polyps counted. Statistical analysis was performed using the Student's t-Test; a p value of ≤ 0.05 is considered statistically significant.

CC1=C(CC(=O)O)c2cc(F)ccc2/C1=C\c1ccc([S+](C)[O-])cc1 (centres unmarked) [sulindac] was tested, and the “Number of Polyps” value (Group III: 20 mg/kg/day sulindac in chow, 60 days, control Group I 32.3 ± 20.7) was 10.0 ± 6.6, the “Number of Polyps” value (third run, Group III: 5 mg/kg/day sulindac in chow, 60 days, control Group I 19.5 ± 14.1) was 20.6 ± 11.8 and the “polyp numbers (result in words)” value (third run, sulindac alone at the 5mg/kg dose) was “did not reduce polyp numbers at all”.

CCOc1cc2ncc(C#N)c(Nc3ccc(F)c(Cl)c3)c2cc1NC(=O)C=CCN(C)C [4-dimethylamino-but-2-enoic acid [4-(3-chloro-4-fluoro-phenylamino)-3-cyano-7-ethoxy-quinolin-6-yl]-amide] was tested, and the reduced polyp numbers (third run, alone, 20 mg/kg, 60 days, versus control) was 87%.

For CC#CC(=O)Nc1ccc2ncnc(Nc3cccc(Br)c3)c2c1 [N-[4-[(3-bromophenyl)amino]-6-quinazolinyl]-2-butynamide], the “Number of Polyps” value (Group II: 40 mg/kg/day in chow, 60 days, control Group I 32.3 ± 20.7) was 15.6 ± 10.6.
